Test results from patent US20250275539A1, “APYRASE INHIBITORS” (Texas Crop Science, Inc., priority 2024, published 2025).
Read-outs that look alike come from different tables or passages of the source.

Tests used:
Microdochium nivale = test: In vitro assessment of combination activity with fungicides, pathogen growing on agar; type: cell-based; conditions: in combination with azoxystrobin at a rate just below that giving control; visual % control
Method: (§1) Selected compounds are assessed in combination with fungicides against a range of commercially important plant pathogenic fungi.
(§2) The test is conducted as follows. A fungicide is applied to a fungal plant pathogen at a rate slightly below that at which it gave any control, in combination with a suitable dose of the test compound. The test compounds are recorded as active if control of the pathogen was observed.
(§3) In more detail, the test is conducted as follows. For each combination of fungicide, pathogen and test compound, the following wells are used. Well 1 contains a fungal pathogen growing on agar, and a fungicide at a rate just below that at which it gave any control of the pathogen. Well 2 is the same as Well 1, except that the test compound is also added at Rate 1. Well 3 is the same as Well 2, except that the test compound is added at Rate 2, where Rate 2 is higher than Rate 1. Finally, as a benchmark, Well 4 is the same as Well 1, except that it contained the fungicide at a higher rate, at which it gave partial control of the pathogen. Each of the Wells 1 to 4 are run in duplicate, giving a total of 8 wells for each combination of fungicide, pathogen and test compound. For each well, after a suitable period of incubation, a visual assessment of the % control of the pathogen by the fungicide is made.
(§4) The following fungicides are used in this assay: azoxystrobin, fluxapyroxad, and desthio prothioconazole. The following fungal pathogens are used in this assay: First, a strain of Zymoseptoria tritici with a reduced susceptibility to strobilurin fungicides; second a strain of Zymoseptoria tritici with a reduced susceptibility to SDHI fungicides (i.e., those that inhibit succinate dehydrogenase); and third, Microdochium nivale. […] In contrast, compounds of the present disclosure are effective in the combination assay, enhancing fungicidal activity of one or more fungicides against at least one strain.

[1] = system: strain of Zymoseptoria tritici with a reduced susceptibility to strobilurin fungicides; test: as above; type: cell-based; conditions: in combination with azoxystrobin, fluxapyroxad or desthio prothioconazole
Method: as §1, §2, §3, §4

[2] = system: strain of Zymoseptoria tritici with a reduced susceptibility to SDHI fungicides; test: as above; type: cell-based; conditions: in combination with azoxystrobin, fluxapyroxad or desthio prothioconazole
Method: as §1, §2, §3, §4

[3] = system: Brown Rust (Puccinia recondita) on wheat; test: Greenhouse crop test: control of Brown Rust on wheat in combination with commercial fungicides; type: in vivo; conditions: wheat JB Diego, inoculated 24 hours after treatment, evaluated at fourteen days
Method: In this method, exemplary compounds were evaluated for their ability to control Brown Rust (Puccinia recondita) on wheat in a controlled greenhouse environment in combination with one of four fungicides, Amistar, Imtrex, Proline or Balaya. In these studies, wheat plants (JB Diego) were used. Seeds were sown in 9 cm diameter pots to a depth of 1 to 2 cm using Petersfield potting compost (75% medium grade peat, 12% screened sterilized loam, 3% medium grade vermiculite, 10% grit (5 mm screened, lime free), 1.5 kg PG mix per m3, lime to pH5.5-6.0 and wetting agent (Vitax Ultrawet 200 ml per m3) and germinated/grown at 23 C under a 16 h day/8 h night light regime. Plants were treated two to three weeks after sowing when they were at the BBCH 11 growth stage ([…]). Wheat plants were inoculated with Puccinia triticina (Brown rust) 24 hours after treatment. A track sprayer was used to treat the plants with the mixture of commercial fungicide and test compound using a water volume of 200 L/ha. Four replicates were used for each combination of fungicide, pathogen and test compound. Each plant was evaluated at fourteen days (once the disease symptoms were fully expressed) for % control of the disease. Appropriate controls were used for all experiments, including an ‘inoculation check’ wherein plants were inoculated with their specific pathogen to assess disease levels. Also, each commercial fungicide was tested on its own as a part of each treatment, this being benchmark against which the experimental compounds were evaluated. […] That is, the present compounds, although not fungicidal by themselves, enhance the activity of fungicides, thus the enhancer compounds work synergistically in combination with fungicides to control disease. • Amistar (0.04 L/ha) • Imtrex (0.45 L/ha) • Proline (0.15 L/ha) • Balaya (0.25 L/ha)

[4] = system: Amaranthus retroflexus (pigweed); test: Enhancement of herbicide activity: pre-emergence Amaranthus kill with metribuzin; type: in vivo; conditions: for pest or weed control at 100 g/ha: Amaranthus retroflexus
Method: Specifically, Amaranthus retroflexus (pigweed) was treated pre-emergence with metribuzin alone or in combination with an enhancer compound disclosed herein. Fifteen seeds of Amaranthus retroflexus were sown in soil in each pot and then sprayed with a mixture of metribuzin at the appropriate rate shown in Table 5 and the compound of this invention at 100 g/ha using a track sprayer at a water volume of 200 L/hectare. Small amounts of acetone were used to aid solubility. The pots were watered immediately after sowing and treatment and then allowed to stand in a glasshouse. Assessment of kill was made seven and fourteen days after treatment. The test included four replicates for each treatment and the control.

apyrase = test: Apyrase inhibition assay (screen for apyrase inhibitors, phosphate release read at 630 nm); type: biochemical; conditions: inhibitor conc at 1 mM (10 μl added), 3 mM ATP, pH 6.5, room temperature 1 hr

SMILES | enhancing the activity of azoxystrobin against Microdochium nivale (Microdochium nivale) | enhancement of fungicide activity against Zymoseptoria tritici strain (reduced susceptibility to strobilurin fungicides) [1] | enhancement of fungicide activity against Zymoseptoria tritici strain (reduced susceptibility to SDHI fungicides) [2] | Amistar (% control of the disease, compound + fungicide) ([3]; with Amistar 0.04 L/ha) | Balaya (% control of the disease, compound + fungicide) ([3]; with Balaya 0.25 L/ha) | Imtrex (% control of the disease, compound + fungicide) ([3]; with Imtrex 0.45 L/ha) | Proline (% control of the disease, compound + fungicide) ([3]; with Proline 0.15 L/ha) | pest or weed control at 100 g/ha ([4]; 168 h, read-out: Pre-Emergence Amaranthus Kill Percentage, Assessed 7 DAT, Metribuzin rate 50 g/ha) | pest or weed control at 100 g/ha ([4]; 168 h, read-out: Pre-Emergence Amaranthus Kill Percentage, Assessed 7 DAT, Metribuzin rate 100 g/ha) | pest or weed control at 100 g/ha ([4]; 168 h, read-out: Pre-Emergence Amaranthus Kill Percentage, Assessed 7 DAT, Metribuzin rate 200 g/ha) | pest or weed control at 100 g/ha ([4]; 336 h, read-out: Pre-Emergence Amaranthus Kill Percentage, Assessed 14 DAT, Metribuzin rate 50 g/ha) | pest or weed control at 100 g/ha ([4]; 336 h, read-out: Pre-Emergence Amaranthus Kill Percentage, Assessed 14 DAT, Metribuzin rate 100 g/ha) | pest or weed control at 100 g/ha ([4]; 336 h, read-out: Pre-Emergence Amaranthus Kill Percentage, Assessed 14 DAT, Metribuzin rate 200 g/ha) | enhancement of metribuzin herbicidal activity ([4]; compound at 100 g/ha with metribuzin, at seven and fourteen days) | Inhibition (apyrase)
O=C(Nc1cccc([N+](=O)[O-])c1)c1cccc(S(=O)(=O)Nc2ccc(Br)cc2)c1 [Roux Compound 13] | exhibited activity | failing to enhance activity of any fungicide | failing to enhance activity of any fungicide | – | – | – | – | – | – | – | – | – | – | – | –
COc1cccc(NS(=O)(=O)c2ccc(-c3ccccc3)cc2)c1 [Compound A-3, N-(3-methoxyphenyl)-[1,1′-biphenyl]-4-sulfonamide] | – | – | – | 81.4% | 38.9% | 47.6% | 3.8% | 15.6% | 68.9% | 34% | 21.7% | 72% | 38.5% | significant enhancement | A (A is inhibition above 30%)
